According to publication PMC6664820, “Novel natural and synthetic inhibitors of solute carriers SGLT1 and SGLT2” (Pharmacology Research & Perspectives, 2019):
Structures can show the parent of a compound that is named as a salt. Where two headings read alike, the source gives them in different places.

What was measured:
[1] = target: T1, hSGLT2 (Homo sapiens, UniProt P31639); test: SGLT2 inhibition assay for validation of screening hits and similar compounds (1‐NBD‐glucose uptake, CHO‐hSGLT2 cells); type: cell-based; set-up: activity: dose or concentration left out as unconfirmed; conditions: for SGLT2/SGLT1 ACTIVITY RATIO, first concentration / SGLT2/SGLT1 ACTIVITY RATIO, second concentration: ratio of normalized SGLT2 to SGLT1 activity; for activity: compound, mean, normalized 1-NBD-glucose uptake, CHO-hSGLT2 cells
T1 sequence (P31639 1-672): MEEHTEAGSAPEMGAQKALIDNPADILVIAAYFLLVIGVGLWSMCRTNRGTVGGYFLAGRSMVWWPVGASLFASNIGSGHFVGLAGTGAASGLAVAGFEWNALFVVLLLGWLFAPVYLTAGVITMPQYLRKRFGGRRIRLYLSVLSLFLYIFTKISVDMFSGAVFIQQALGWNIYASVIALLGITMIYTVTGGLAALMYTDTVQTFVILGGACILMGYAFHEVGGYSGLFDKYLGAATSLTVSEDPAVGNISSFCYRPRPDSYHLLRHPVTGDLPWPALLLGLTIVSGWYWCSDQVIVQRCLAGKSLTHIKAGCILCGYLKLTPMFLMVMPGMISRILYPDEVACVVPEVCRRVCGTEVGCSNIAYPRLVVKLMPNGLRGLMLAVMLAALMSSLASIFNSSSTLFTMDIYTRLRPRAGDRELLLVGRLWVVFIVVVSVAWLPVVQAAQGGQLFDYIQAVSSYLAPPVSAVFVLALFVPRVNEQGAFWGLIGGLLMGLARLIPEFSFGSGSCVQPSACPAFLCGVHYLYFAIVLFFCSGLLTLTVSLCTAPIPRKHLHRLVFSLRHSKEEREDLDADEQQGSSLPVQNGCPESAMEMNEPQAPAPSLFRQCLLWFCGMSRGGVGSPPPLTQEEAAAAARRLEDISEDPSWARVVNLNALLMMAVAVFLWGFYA

[2] = tested on: CHO‐hSGLT1/2 cells; test: Cytotoxicity assay (ToxiLight, adenylate kinase leakage into CHO‐SGLT1/2 inhibition assay media); set-up: CYTOTOXICITY / CY[…], mean / CYTOTOXICITY (% of vehicle control) Mean / CYTOTOXICITY, mean / CY[…] (% of vehicle control) Mean: dose or concentration left out as unconfirmed; conditions: for CYTOTOXICITY, mean: ToxiLight, adenylate kinase leakage;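 on all read-outs here: bioluminescent read-out of adenylate kinase released from lysed cells into the medium, given relative to DMSO vehicle control defined as 0%, higher meaning more cytolysis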
[3] = ratio of normalized SGLT2 to SGLT1 activity at 5 uM

| SMILES | CY[…] (% of vehicle control) Mean ([2]; mean) | SGLT2/SGLT1 ACTIVITY RATIO, first concentration [1] | SGLT2/SGLT1 ACTIVITY RATIO, second concentration [1] | CYTOTOXICITY, mean [2] | also measured |
| --- | --- | --- | --- | --- | --- |
| CNCCCN1c2ccccc2CCc2ccccc21 [Desipramine HCl] | -19 % of vehicle control | – | – | – | SGLT2/SGLT1 ACTIVITY RATIO 5 uM Mean [1, 3]: 0.759 |
| CC(=O)O[C@@H]1C[C@H](O)[C@@]23CO[C@@H](O)[C@]1(C)[C@@H]2C[C@@H](O)[C@]1(C)[C@@H]3C(=O)[C@H](OC(C)=O)[C@@]2(C)[C@H](c3ccoc3)C[C@H]3O[C@]321 [Toosendanin] | – | 1.0 | 1.0 | -4.53 | – |
| CC1(C)C(=O)C=C[C@@]2(C)C1=C(O)C(=O)[C@]1(C)[C@@H]2[C@@H](O)CC2=C(c3ccoc3)C[C@@H](O)[C@]21C [Walsuronoid B] | – | 0.9 | 1.0 | -23 | – |
| CC1(C)C(=O)C=C[C@@]2(C)C1=C(O)C(=O)[C@]1(C)[C@@H]2[C@@H](O)C[C@@]2(C)[C@H](c3ccoc3)C[C@H]3O[C@]321 [11beta-Hydroxycedrelone] | – | 1.7 | 1.2 | -13 | – |
| CN1CCOC(c2ccccc2)c2ccccc2C1 (centres unmarked) [Nefopam HCl] | -25 % of vehicle control | – | – | – | SGLT2/SGLT1 ACTIVITY RATIO 5 uM Mean [1, 3]: 0.9 |
| CCN(CC)CCOC(=O)C(c1ccccc1)C1CCCCC1 (centres unmarked) [Drofenine HCl] | 1.71 % of vehicle control | – | – | – | activity [1]: 72% |
| OC(CCN1CCCCC1)(c1ccccc1)C1CCCCC1 (racemic) [(±)-Trihexyphenidyl HCl] | -12 % of vehicle control | – | – | – | SGLT2/SGLT1 ACTIVITY RATIO 5 uM Mean [1]: 1.0; SGLT2/SGLT1 ACTIVITY RATIO 50 mM Mean [1]: 1.3 |
| CC(=O)O[C@H]1C[C@@H](OC(C)=O)[C@@]2(C)CO[C@H]3[C@@H](O)[C@@]4(C)C5=CC[C@@H](c6ccoc6)[C@]5(C)CC[C@@H]4[C@]1(C)[C@@H]32 [1,3-Diacetylvilasinin] | – | 1.1 | 1.1 | -18 | – |
| CC1(C)OC(=O)C=C[C@]2(C)[C@H]3CC[C@@]4(C)[C@H](c5ccoc5)OC(=O)[C@H]5O[C@]54[C@]3(C)C(=O)C[C@@H]12 [Obacunone] | – | 1.2 | 1.1 | -21 | – |
| COc1cc2c(=O)c(-c3ccc(O)cc3)coc2cc1O[C@@H]1O[C@H](CO)[C@@H](O)[C@H](O)[C@H]1O [Glycitin] | – | – | – | – | activity [1]: 106%; SGLT2/SGLT1 ACTIVITY RATIO 5 uM Mean [1, 3]: 1.1; CYTOTOXICITY (% of vehicle control) Mean ([2]; mean): -22 % of vehicle control |
| CN1[C@@H]2CC[C@H]1C[C@@H](OC(c1ccccc1)c1ccccc1)C2 [Benztropine mesylate] | -10 % of vehicle control | – | – | – | activity [1]: 73% |
